From patent publication US20160376286A1, “Pyrimidin-4-one derivatives and their use in the tratement, amelioration or prevention of a viral disease” (priority 2011, published 2016)

Test system: influenza A virus A/Aichi/2/68 (H3N2)
Test: Cytopathic effect (CPE) assay H3N2 in MDCK cells
Type: cell-based, influenza A virus (A/Aichi/2/68 (H3N2)); MDCK cells
Protocol: A possible measure of the […] antiviral activity of the compounds having the formula I or II is the CPE assay disclosed herein. […] In this connection, the reduction in the virus-mediated cytopathic effect (CPE) upon treatment with the compounds was calculated as follows: The cell viability of infected-treated and uninfected-treated cells was determined using an ATP-based cell viability assay (Promega). The response in relative luminescent units (RLU) of infected-untreated samples was subtracted from the response (RLU) of the infected-treated samples and then normalized to the viability of the corresponding uninfected sample resulting in % CPE reduction.
The influenza A virus (IAV) was obtained from American Tissue Culture Collection (A/Aichi/2/68 (H3N2); VR-547). Virus stocks were prepared by propagation of virus on Mardin-Darby canine kidney (MDCK; ATCC CCL-34) cells and infectious titres of virus stocks were determined by the 50% tissue culture infective dose (TCID50) analysis as described in Reed, L. J., and H. Muench. 1938, Am. J. Hyg. 27:493-497.
MDCK cells were seeded in 96-well plates at 2×10^4 cells/well using DMEM/Ham's F-12 (1:1) medium containing 10% foetal bovine serum (FBS), 2 mM L-glutamine and 1% antibiotics (all from PAA). Until infection the cells were incubated for 5 hrs at 37° C., 5.0% CO2 to form a -80% confluent monolayer on the bottom of the well. Each test compound was dissolved in DMSO and generally tested at 25 μM and 250 μM. In those cases where the compounds were not soluble at that concentration they were tested at the highest soluble concentration. The compounds were diluted in infection medium (DMEM/Ham's F-12 (1:1) containing 5 μg/ml trypsin, and 1% antibiotics) for a final plate well DMSO concentration of 1%. The virus stock was diluted in infection medium (DMEM/Ham's F-12 (1:1) containing 5 μg/m1Trypsin, 1% DMSO, and 1% antibiotics) to a theoretical multiplicity of infection (M01) of 0.05.
After removal of the culture medium and one washing step with PBS, virus and compound were added together to the cells. In the wells used for cytotoxicity determination (i.e. in the absence of viral infection), no virus suspension was added. Instead, infection medium was added. Each treatment was conducted in two replicates. After incubation at 37° C., 5% CO2 for 48 hrs, each well was observed microscopically for apparent cytotoxicity, precipitate formation, or other notable abnormalities. Then, cell viability was determined using
CellTiter-Glo luminescent cell viability assay (Promega). The supernatant was removed carefully and 65 μl of the reconstituted reagent were added to each well and incubated with gentle shaking for 15 min at room temperature. Then, 60 μl of the solution was transferred to an opaque plate and luminescence (RLU) was measured using Synergy HT plate reader (Biotek).
Relative cell viability values of uninfected-treated versus uninfected-untreated cells were used to evaluate cytotoxicity of the compounds. Substances with a relative viability below 80% at the tested concentration were regarded as cytotoxic and retested at lower concentrations.
Reduction in the virus-mediated cytopathic effect (CPE) upon treatment with the compounds was calculated as follows: The response (RLU) of infected-untreated samples was subtracted from the response (RLU) of the infected-treated samples and then normalized to the viability of the corresponding uninfected sample resulting in % CPE reduction.

Cl.O=C(NO)c1cc(N2CCCCC2)ccn1
CPE H3N2 reduction (%) (activity conc 5): −4.1%

CCONC(=O)c1cc(N2CCOCC2)ccn1.Cl
CPE H3N2 reduction (%) (activity conc 50 (μM)): 1.3%

CCONC(=O)c1cc(N)ccn1.Cl
CPE H3N2 reduction (%) (activity conc 50 (μM)): 10.5%

CCONC(=O)c1ccccn1
CPE H3N2 reduction (%) (activity conc 50 (μM)): 12.5%

CCONC(=O)c1ccc2ccccc2n1
CPE H3N2 reduction (%) (activity conc 50 (μM)): −2.2%

CCONC(=O)c1ccc(-c2cccc(CN(C)CCCc3ccccc3)c2)cn1.Cl
CPE H3N2 reduction (%) (activity conc 20): 1.6%

CCONC(=O)c1cc(NCc2cccc(OCc3ccccc3)c2)ccn1.Cl
CPE H3N2 reduction (%) (activity conc 1): 1.2%

O=C(NOCc1ccccc1)c1ccc(N2CCCC2)cn1
CPE H3N2 reduction (%) (activity conc 20): −8.7%

O=C(c1ccc(N2CCCC2)cn1)N(Cc1ccccc1)OCc1ccccc1
CPE H3N2 reduction (%) (activity conc 5): −2.7%

O=C(c1cc2ccccc2cn1)N(Cc1ccccc1)OCc1ccccc1
CPE H3N2 reduction (%) (activity conc 5): 1.3%

Cc1cccc(-c2ccc(C(=O)N(O)Cc3ccccc3)nc2)c1
CPE H3N2 reduction (%) (activity conc 10): 15.5%

O=C(NOCc1ccccc1)c1cc2ccccc2cn1
CPE H3N2 reduction (%) (activity conc 5): −1.5%

O=C(c1cc2ccccc2cn1)N(O)CCc1ccccc1
CPE H3N2 reduction (%) (activity conc 20): −1.8%

O=C(c1cc(N2CCCCC2)ccn1)N(O)CCCc1ccccc1
CPE H3N2 reduction (%) (activity conc 2): 7.7%

CC(C)c1cccc(-c2ccc(C(=O)NO)nc2)c1
CPE H3N2 reduction (%) (activity conc 2): −2.1%

O=C(c1cc2ccccc2cn1)N(O)CCCc1ccccc1
CPE H3N2 reduction (%) (activity conc 2): 4.4%

CC(C)c1cccc(-c2ccc(C(=O)N(O)CCc3ccccc3)nc2)c1
CPE H3N2 reduction (%) (activity conc 2): 2.1%

O=C(c1ccc(N2CCCCC2)cn1)N(O)Cc1ccccc1
CPE H3N2 reduction (%) (activity conc 5): −3.4%

O=C(c1cc(NS(=O)(=O)Cc2ccccc2)ccn1)N(O)Cc1ccccc1
CPE H3N2 reduction (%) (activity conc 50 (μM)): 6.2%

O=C(c1cc(-c2ccccc2)ccn1)N(O)Cc1ccccc1
CPE H3N2 reduction (%) (activity conc 10): −9.3%

O=C(NO)c1cc(N2CCOCC2)ccn1
CPE H3N2 reduction (%) (activity conc 50 (μM)): −7.1%

O=C(c1cc(NS(=O)(=O)c2ccccc2)ccn1)N(O)Cc1ccccc1
CPE H3N2 reduction (%) (activity conc 50 (μM)): −5.2%

CN(Cc1ccccc1)c1ccnc(C(=O)N(O)Cc2ccccc2)c1
CPE H3N2 reduction (%) (activity conc 5): 3.8%

O=C(c1ccc(-c2ccccc2)cn1)N(O)Cc1ccccc1
CPE H3N2 reduction (%) (activity conc 12): 13.4%

O=C(NO)c1ccc(-c2ccccc2)cn1
CPE H3N2 reduction (%) (activity conc 12): 21.7%

O=C(NO)c1cc(-c2ccc(Cl)cc2)ccn1
CPE H3N2 reduction (%) (activity conc 5): 26.6%

C[C@@H]1CN(c2ccnc(C(=O)N(O)Cc3ccccc3)c2)C[C@H](C)O1
CPE H3N2 reduction (%) (activity conc 50 (μM)): 10.5%

O=C(c1cc(-c2ccc(Cl)cc2)ccn1)N(O)Cc1ccccc1
CPE H3N2 reduction (%) (activity conc 2): −6.7%

O=C(c1cc(-c2ccc(Cl)c(Cl)c2)ccn1)N(O)Cc1ccccc1
CPE H3N2 reduction (%) (activity conc 5): 8.1%

NC(=O)c1cccc(-c2ccnc(C(=O)N(O)Cc3ccccc3)c2)c1
CPE H3N2 reduction (%) (activity conc 5): −2.7%

CN(C)C1CCN(c2ccnc(C(=O)N(O)Cc3ccccc3)c2)CC1
CPE H3N2 reduction (%) (activity conc 50 (μM)): 12.3%

O=C(c1cc(-c2ccccc2)ccn1)N(O)Cc1ccc(F)cc1
CPE H3N2 reduction (%) (activity conc 1): −3.2%

O=C(c1cc(N2CCCC(F)(F)C2)ccn1)N(O)Cc1ccccc1
CPE H3N2 reduction (%) (activity conc 50 (μM)): 8.9%

CN1CCN(c2ccnc(C(=O)N(O)Cc3ccccc3)c2)CC1
CPE H3N2 reduction (%) (activity conc 50 (μM)): 2.4%

O=C(c1cc(N2CCC(N3CCCC3)CC2)ccn1)N(O)Cc1ccccc1
CPE H3N2 reduction (%) (activity conc 50 (μM)): 10.7%

CC(C)(C)OC(=O)NC1CCN(c2ccnc(C(=O)N(O)Cc3ccccc3)c2)CC1
CPE H3N2 reduction (%) (activity conc 50 (μM)): 8.3%

CC(C)(C)OC(=O)N1CC=C(c2ccnc(C(=O)N(O)Cc3ccccc3)c2)CC1
CPE H3N2 reduction (%) (activity conc 5): 1.2%

CN(C)CCNC(=O)c1cccc(-c2ccnc(C(=O)N(O)Cc3ccccc3)c2)c1
CPE H3N2 reduction (%) (activity conc 50 (μM)): 8.9%

O=C(c1cc(N2CCC(N3CCCCC3)CC2)ccn1)N(O)Cc1ccccc1
CPE H3N2 reduction (%) (activity conc 50 (μM)): 18.8%

NC(=O)c1ccc(-c2ccnc(C(=O)N(O)Cc3ccccc3)c2)cc1
CPE H3N2 reduction (%) (activity conc 5): −2.5%
